Measurements from patent US9950007B2, “Neuronal protection by cerium oxide nanoparticles” (UNIVERSITY OF CENTRAL FLORIDA RESEARCH FOUNDATION, INC., priority 2011, dated 2018).
“Also recorded” adds a separate entry of the source.

Legend:
[1] = test system: DRP1 phosphorylation at S616; assay: Western blot of p-DRP1 S616 in neurons; assay type: cell-based, rat; details: preaggregated Aβ 25-35 10 μM, 6 h; nanoceria 100 nM or NAC 50 μM, 3 h pretreatment
Experimental: To measure the levels of p-DRP1 S616, neurons were lysed in buffer containing 50 mM Tris-Cl, pH 7.0, 150 mM NaCl, 1 mM MgCl2, 1 mM NaF, 1 mM NaVO4, 1% NP40, 10% glycerol and complete Protease Inhibitor Cocktail Tablets (Roche Applied Science, US). Membranes were blocked with 5% nonfat milk in TBS (pH 8.0) with 0.05% Tween20 for 3 h at room temperature (RT) and were incubated with primary rabbit polyclonal antibodies for p-DRP1 S616 (Cell Signaling) (1:1000) overnight at 4° C. The membranes were then washed four times (5 min) with TBS (0.05% Tween) and incubated for 2 h at room temperature with anti-rabbit horseradish peroxidase-conjugated secondary antibodies (GE Healthcare)(1:15,000) in blocking solution. After 4 washes (5 min) of TBS (0.05% Tween), immunocomplexes were then detected using the Super-Signal West-Dura or Femto chemiluminescent substrates (Pierce, Thermoscientific, Rockford, Ill.). For re-probing the membranes were stripped with Restore Western Blot Stripping Buffer (Thermo-Scientific) according to the manufacturer and incubated with mouse monoclonal antibodies for DRP1 (BD Biosciences, clone 8/DLP1) (1:1000) antibody or with polyclonal rabbit antibodies for β-actin (Cell Signaling) (1:1000).

cortical neurons = assay: Scoring for neuronal cell death under nitrosative stressors; assay type: cell-based, rat; details: oligomerized Aβ 25-35 10 μM, 6 h; nanoceria 100 nM or NAC 50 μM, 3 h pretreatment
Experimental: To assess the neuronal protection capabilities of CeO2 NPs, pure cortical neuronal cultures transfected with DsRed2-Mito were pretreated with CeO2 NPs (100 nM) and subjected to various treatments known to increase RNS. […] Cell death was evaluated by condensed nuclei accompanied by shrunken soma and mitochondrial fragmentation (FIG. 4A center panel).
Cultures were either transfected with DsRed2-Mito on day 5 using LipoFectamine2000® or immunostained for microtubule-associated protein 2 (MAP2) for visualization of processes. Experiments were performed after 11-14 days in vitro (DIV) with 3-NP, glutamate or NMDA. SNOC treated cultures were performed after 8 DIV. Neurons were pretreated with CeO2 NPs for various time points, 3 h, 12 h, 24 h or 72 h. For cultures treated with 3-NP (diluted in EBSS and pH adjusted to 7.4 with NaOH), 3-NP was diluted in individual culture's conditioned medium before exchange and cultures left for 8 h. Brief exposure to NMDA was carried as follows. […] Cells with fragmented mitochondria and condensed chromatin by Hoechst 33342 staining were scored as dead neurons. To evaluate mitochondrial fragmentation and cell death of a large number of neurons, manual scoring was carried out of neurons grown on glass coverslips using conventional fluorescence microscopy. […]

[2] = test system: mitochondrial morphology in cortical neurons; assay: Mitochondrial fragmentation in neurons expressing DsRed2-Mito; assay type: cell-based, rat; details: Aβ 25-35 10 μM, 6 h; nanoceria 100 nM or NAC 50 μM, 3 h pretreatment
Excerpt: To test whether nanoceria would prevent the Aβ-induced mitochondrial fragmentation, the mitochondrial morphology by fluorescence microscopy in neurons expressing DsRed2-Mito, a red fluorescent protein targeted to the mitochondrial matrix was visualized.
Cultures were either transfected with DsRed2-Mito on day 5 using LipoFectamine2000® or immunostained for microtubule-associated protein 2 (MAP2) for visualization of processes. […] For Aβ (25-25) treated cultures, Aβ (25-35) or reverse (35-25) was left to oligomerize for 24 h at 25° C. before adding to cultures at 10 μM for 6 h. Cells were fixed in 3.7% formaldehyde and 5% sucrose in PBS for 20 min at 37° C. […] Cells with fragmented mitochondria and condensed chromatin by Hoechst 33342 staining were scored as dead neurons. To evaluate mitochondrial fragmentation and cell death of a large number of neurons, manual scoring was carried out of neurons grown on glass coverslips using conventional fluorescence microscopy.
Neurons were grown on poly-Lysine coated glass cover slips as described before and transfected with DsRed2-Mito after 5 days in vitro (DIV) using Lipofectamine2000®. […] Quantification of mitochondrial fragmentation and neuronal cell death was performed as described (30). Fluorescence microscopy and image acquisition of mitochondrial morphology was performed as previously described (98).

[3] = ONOO^−-mediated APF oxidation in vitro (fluorescence spectroscopy); details: ONOO^− 20 μM, fluorescence 515 nm (ex. 490 nm)
Experimental: To obtain further insight into the ONOO^− scavenging abilities of CeO2 NPs, the yield of oxidized APF was followed by fluorescent spectroscopy using the oxidizable probe, 3′-(p-aminophenyl) fluorescein (APF) as an indicator (FIG. 2B). APF is an aromatic amino-fluorescein derivative that has little intrinsic fluorescence but undergoes oxidation by only hydroxyl radical, hypochlorate ion, and certain peroxidase intermediates such as ONOO^−, but is inert to NO., O2^⋅− and H2O2 (40).
ONOO^− (20 μM) was added to APF along with varying amounts CeO2 NPs. Glutathione (Fisher, Fair Lawn, N.J.) and uric acid (Avocado, Research Chemicals, Ltd.) known scavengers of ONOO^−, were used as positive controls. Fluorescence at 515 nm (ex. 490 nm) was measured using a Varian Cary Eclipse fluorescence spectrophotometer (Palo Alto, Calif.).

[4] = Decay of ONOO^− followed at 302 nm by UV-visible spectroscopy
Experimental: The decay of ONOO^− was followed in the absence and presence of CeO2 NPs (FIG. 2A and Supplementary FIG. 3: Effect of CeO2 NPs on the rate of decay of ONOO— in vitro varying pH. ONOO— (25 μM) was added at various pH's alone and in the presence of CeO2 NPs (100 μM), SiO2 NPs (100 μM), glutathione (GSH) (0.5 mM). (A) Peroxynitrite absorbance followed at 302 nm in 100 mM sodium phosphate buffer at pH 8.6. (N=4). GSH, known general scavenger and SiO2 NPs were added as positive and negative controls, respectively. Rate of ONOO—(black traces) decomposition was increased with CeO2 NPs (blue traces) in a similar manner of GSH (red traces). Rate of decomposition was not affected by presence of SiO2 NPs (green traces). B) 100 mM sodium phosphate buffer at pH 9.5. (N=3). Rate of ONOO—(black traces) decomposition was increased with CeO2 NPs (blue traces) in a similar manner of GSH (red traces). Absorbance was normalized by subtracting the final absorbance from initial absorbance and dividing by the amplitude. As stock solutions of ONOO— contain 0.3 M NaOH, control incubations were performed with equivalent amounts of NaOH. All in vitro experiments were performed using phosphate buffers containing 1 μM DPTA.). The in vitro assays were repeated using various phosphate buffers while varying the pH's. Since carbon dioxide is known to enhance the rate of ONOO^− decomposition (38), the change in absorbance at 302 nm was followed in potassium phosphate buffer (pH 8.0), which was degassed by argon. […] This change of absorbance in response to addition of CeO2 NPs in these studies also mimics the scavenging seen with glutathione, a known antioxidant that protects cells from free radicals and peroxides (39). […]
UV-visible spectroscopy was used to measure decomposition of ONOO^− in the presence and absence of CeO2 NPs. […] Each sample was analyzed for a total of 600 seconds with a cycle time of 0.5 seconds at a wavelength of 302 nm using buffer containing 100 mM sodium phosphate buffer (pH 9.5-8.0) and 1 μM diethylenetriaminepentaacetic acid (DPTA) with or without CeO2 NPs. […]

[5] = cited from earlier work

CC(=O)N[C@@H](CS)C(=O)O [NAC, N-acetyl-L-cysteine]
Aβ 25-35-induced DRP1 S616 phosphorylation [1]: abolished | cell viability / cell death after Aβ (25-35) (cortical neurons): relieved; also recorded: reduced | Aβ25-35-induced mitochondrial fragmentation (fluorescence micrographs) [2]: prevented

O=c1[nH]c(=O)c2[nH]c(=O)[nH]c2[nH]1 [uric acid]
oxidation of APF by ONOO^− [3]: prevented the oxidation of APF | rate of ONOO^− decomposition ([4]; potassium phosphate buffer pH 8.0, degassed by argon, absorbance 302 nm): increased

N[C@@H](CCC(=O)N[C@@H](CS)C(=O)NCC(=O)O)C(=O)O [GSH, glutathione]
oxidation of APF by ONOO^− [3]: prevented the oxidation of APF | rate of ONOO^− decomposition ([4]; 100 mM sodium phosphate buffer pH 8.6, ONOO^− 25 μM, CeO2 NPs 100 μM, SiO2 NPs 100 μM, GSH 0.5 mM): increased | rate of ONOO^− decomposition ([4]; 100 mM sodium phosphate buffer pH 9.5, ONOO^− 25 μM, CeO2 NPs 100 μM, GSH 0.5 mM): increased

nitro-tyrosine
pKa [5]: 7.4
